Measured values as given in patent US11173146B2, “Selective activators of the intermediate conductance CA2+activated K+ channel KCa3.1 and their methods of use” (The Regents of the University of California, priority 2014, dated 2021).

Experiments:
[1] = target: KCa3.1 (Homo sapiens, UniProt O15554+P0DP23); conditions: literature; cited from earlier work
[2] = system: KCa2 channels; conditions: literature; cited from earlier work
[3] = target: T1, KV11.1 (hERG) (Homo sapiens, UniProt Q12809); conditions: literature; cited from earlier work
T1 construct: host or cells: HEK-293

[4] = system: KCa2/3 channels; conditions: literature; read-out: EC50s for activation of KCa2/3 channels; cited from earlier work
[5] = system: voltage-gated sodium (NaV) channels; conditions: literature; cited from earlier work
[6] = rats; literature; cited from earlier work
[7] = system: dogs; conditions: intravenous 2 mg/kg, literature; cited from earlier work
[8] = system: mice; conditions: literature, cited from earlier work
[9] = Solubility for electrophysiology testing; type: physicochemical

T1 sequence (Q12809 whole entry): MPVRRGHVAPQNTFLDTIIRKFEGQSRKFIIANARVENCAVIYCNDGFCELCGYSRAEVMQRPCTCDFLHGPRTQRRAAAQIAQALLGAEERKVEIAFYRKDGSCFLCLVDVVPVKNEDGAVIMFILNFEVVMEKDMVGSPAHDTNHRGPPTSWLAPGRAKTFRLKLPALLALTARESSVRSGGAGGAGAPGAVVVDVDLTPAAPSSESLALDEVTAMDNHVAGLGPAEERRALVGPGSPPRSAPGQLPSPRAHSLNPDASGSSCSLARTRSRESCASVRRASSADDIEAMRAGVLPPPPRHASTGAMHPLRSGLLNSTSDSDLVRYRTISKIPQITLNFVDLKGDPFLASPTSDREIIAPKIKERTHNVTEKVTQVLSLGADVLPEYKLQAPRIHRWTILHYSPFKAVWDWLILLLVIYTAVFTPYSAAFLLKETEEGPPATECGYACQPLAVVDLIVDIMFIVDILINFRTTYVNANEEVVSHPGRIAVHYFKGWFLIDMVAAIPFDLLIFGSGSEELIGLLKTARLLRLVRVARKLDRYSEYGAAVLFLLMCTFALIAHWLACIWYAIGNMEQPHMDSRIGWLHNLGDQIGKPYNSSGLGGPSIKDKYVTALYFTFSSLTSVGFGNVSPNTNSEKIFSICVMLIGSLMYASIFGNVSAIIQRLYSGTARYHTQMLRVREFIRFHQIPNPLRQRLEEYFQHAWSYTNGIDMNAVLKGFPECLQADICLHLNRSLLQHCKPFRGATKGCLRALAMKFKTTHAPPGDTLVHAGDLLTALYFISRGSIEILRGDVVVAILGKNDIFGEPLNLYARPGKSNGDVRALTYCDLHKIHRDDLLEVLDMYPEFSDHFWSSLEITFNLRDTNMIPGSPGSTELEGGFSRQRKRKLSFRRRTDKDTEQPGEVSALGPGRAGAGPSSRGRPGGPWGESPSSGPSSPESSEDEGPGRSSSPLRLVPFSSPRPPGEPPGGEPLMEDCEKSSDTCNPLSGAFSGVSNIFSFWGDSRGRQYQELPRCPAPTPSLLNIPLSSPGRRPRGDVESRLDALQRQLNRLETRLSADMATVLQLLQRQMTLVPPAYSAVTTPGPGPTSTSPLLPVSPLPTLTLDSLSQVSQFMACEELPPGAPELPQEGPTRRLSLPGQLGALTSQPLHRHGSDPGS

For `O=C1Nc2c(ccc(Cl)c2Cl)C1=NO` [NS309, 6,7-dichloro-1H-indole-2,3-dione 3 oxime], the EC50 [1] is given as about 20 nM, the EC50 [2] is given as about 600 nM and the “concentration that inhibits KV11.1 (hERG)” value [3] is given as 1000 nM.

In the case of `Nc1nc2ccc(OC(F)(F)F)cc2s1` [Riluzole], the EC50 [4] is listed as 10000 to 20000 nM and the “concentrations that inhibit/affect NaV channels” value [5] is listed as 1 to 50 µM.

For `Nc1nc2c(ccc3ccccc32)s1` [SKA-31, naphtho[1,2-d]thiazol-2-ylamine], the half-live [6] is listed as 12 h, the “reduction in blood pressure” value [7] is listed as −30 mmHg and the “heart rate” value ([8]; 100 mg/kg) is listed as “significant bradycardia”. The “duration of blood pressure lowering” value ([8]; 10-30 mg/kg) was 60 to 90 min and the “lowering of blood pressure” value ([8]; 10-30 mg/kg) was about 30 mmHg.

With `Nc1nc2c(cc(Br)c3ccccc32)s1` [SKA-87, 5-Bromooaphtho[1,2-d]thiazol-2-amine] the “solubility” value [9] was “too insoluble to be tested”.
